US3954780A, “Propionic acid derivatives” (Innothera, priority 1970, dated 1976)
≈ marks a conversion by molar mass, not a printed value. Read-outs that look alike come from different tables or passages of the source.

Legend:
isolated rat duodenum = assay: Spasmolytic activity of papaverinic type, barium chloride contracture; details: Tyrode 38°; for EC50: read-out: Spasmolytic activity Papaverinic type DE 50 (converted)
Procedure: a. To show activity of the papaverinic type, the contracturant used is barium chloride acting on the isolated rat duodenum.
The average activity of the substances studied has been effected by determining graphically their DE 30 and DE 50 these being expressed in μg for 20 ml of bath.

[1] = tested on: isolated ileum of the guinea-pig; assay: Spasmolytic activity of atropinic type, acetylcholine chloride contracture; details: Tyrode 33°; for EC50: Cavia porcellus, read-out: Spasmolytic activity Atropinic type DE 50 (converted)
Source text: b. To show activity of atropinic type the contracturant used is acetylcholine chloride acting on the isolated ileum of the guinea-pig. […]

skin reflex = assay: Local anaesthetic activity, conduction anaesthesia (method of Moukhtar); type: in vivo; details: for average number of stimulations for the derivative studied n: intradermal 0.20 ml
Source text: The method of MOUKHTAR has been chosen to show the activity of the derivatives studied on conduction anaesthesia (A. MOUKHTAR, C.R. Soc. Biol. 1909-66-187,189).
The reference local anaesthetic substance used in the tests has in each case been procaine hydrochloride in 0.5% solution in an 0.9% isotonic solution of NaCl. The three concentrations used to study the local anaesthetic activity of the new derivatives are 0.50, 0.25 and 0.10%, the vehicle being the isotonic 0.9% solution of NaCl.
The average anaesthetic activity of the substances chosen is expressed comparatively to that of the reference product chosen, by calculating the ratio of the average number n of the stimulations necessary to obtain the appearance of the skin reflex in the case of the derivatives studied, to the average number (n') of the stimulation determined for the reference substance.
The procaine hydrochloride and the derivatives studied are administered by the intradermal route at the rate of 0.20 ml per injection.

[2] = tested on: acute oedema provoked by serotonine in the rat; assay: Anti-serotonic activity, serotonine-induced acute paw oedema; type: in vivo; details: 30 minutes before serotonine
Procedure: This has been researched in the rat by the technique of the acute oedema localised in the metatarsal region, provoked by the injection of 0.05 ml of a 0.01% solution of serotonine (sulphate of 5-hydroxy-tryptamine-creatinine) in an isotonic solution of sodium chloride.
The plethysmometric measurements of the paw having been subjected to the injection have been effected before, and at different times after, the injection of the serotonine.
The derivatives to be studied have been administered by the oral route 30 minutes before the serotonine.

[3] = Acute toxicity in the mouse (DL50, method of Miller and Tainter); details: in vivo, read-out: DL 50 (the source's name)
Source text: The acute toxicity of the amine ester derivatives of β-[ benzo(b)thienyl-3]propionic acid have been studied in the mouse by intraperitoneal and oral routes, the products being administered in an isotonic solution of sodium chloride, 0.9%, or in suspension in a dilute aqueous solution of carboxymethyl cellulose.
The calculation of the DL50 has been effected according to the method of MILLER and TAINTER (MILLER. L.C., TAINTER M.L. - Proc. Soc. Exptl. Biol. Med. 1944-57-261,264).

[4] = derivative 0.10 g/100 ml vs procaine hydrochloride 0.50 g/100 ml
[5] = derivative 0.25 g/100 ml vs procaine hydrochloride 0.50 g/100 ml
[6] = derivative 0.50 g/100 ml vs procaine hydrochloride 0.50 g/100 ml

SMILES	Spasmolytic activity Papaverinic type DE 30 (isolated rat duodenum)	EC50 (isolated rat duodenum)	EC50 [1]	Spasmolytic activity Atropinic type DE 30 [1]	average number of stimulations for the derivative studied n (skin reflex; 0.10 g/100 ml)	average number of stimulations for the derivative studied n (skin reflex; 0.25 g/100 ml)	average number of stimulations for the derivative studied n (skin reflex; 0.50 g/100 ml)	local anaesthetic activity n/n' (skin reflex; [4])	local anaesthetic activity n/n' (skin reflex; [5])	local anaesthetic activity n/n' (skin reflex; [6])	average percentage reduction in oedema after 1 hour ([2]; 30 mg/kg oral)	average percentage reduction in oedema after 2 hours ([2]; 30 mg/kg oral)	average percentage reduction in oedema after 1 hour ([2]; 50 mg/kg oral)	average percentage reduction in oedema after 2 hours ([2]; 50 mg/kg oral)	LD50 ([3]; ip)	LD50 ([3]; v.o. (oral) route)
O=C(OCCCN1CCCC1)C(Cc1csc2ccccc12)CC1CCCO1 (centres unmarked) [Compound 54]	9.5 μg for 20 ml of bath	0.6 µg/mL (≈ 1.49 µM)	4.5 µg/mL (≈ 11.2 µM)	52 μg/20 ml of bath	16.7	25.7	31.4	0.6	0.8	1.1	22.4%	16.0%	34.9%	45.0%	100 ± 12 mg/kg	400 ± 27 mg/kg
O=C(OCCN1CCCCC1)C(Cc1csc2ccccc12)CC1CCCO1 (centres unmarked) [Compound 50]	5.0 μg for 20 ml of bath	0.6 µg/mL (≈ 1.49 µM)	3.5 µg/mL (≈ 8.72 µM)	48 μg/20 ml of bath	–	–	–	–	–	–	–	–	–	–	122 ± 12 mg/kg	–
O=C(OCCCN1CCCCC1)C(Cc1csc2ccccc12)CC1CCCO1 (centres unmarked) [Compound 55]	3.5 μg for 20 ml of bath	0.375 µg/mL (≈ 0.902 µM)	–	–	–	–	–	–	–	–	12.3%	11.3%	40.7%	39.8%	85 ± 12 mg/kg	~450 mg/kg
CCN(CC)CCCOC(=O)C(Cc1csc2ccccc12)CC1CCCO1 (centres unmarked) [Compound 53]	4.5 μg for 20 ml of bath	0.4 µg/mL (≈ 0.991 µM)	7 µg/mL (≈ 17.3 µM)	75 μg/20 ml of bath	14.2	29.1	33.2	0.5	1.0	1.2	19.4%	15.1%	40.6%	42.9%	145 ± 9 mg/kg	1150 ± 78 mg/kg
O=C(OCCN1CCCC1)C(Cc1cccs1)Cc1csc2ccccc12 (centres unmarked) [Compound 37]	6.8 μg for 20 ml of bath	0.65 µg/mL (≈ 1.63 µM)	4 µg/mL (≈ 10 µM)	50 μg/20 ml of bath	–	–	–	–	–	–	–	–	–	–	320 ± 21 mg/kg	–
C=CCC(Cc1csc2ccccc12)C(=O)OC(C)CN1CCCC1 (centres unmarked) [Compound 11]	4.0 μg for 20 ml of bath	0.6 µg/mL (≈ 1.68 µM)	–	–	–	–	–	–	–	–	–	–	–	–	270 ± 59 mg/kg	–
